Experimental data as given in the supplement of paper PMC10307832.

How the values were obtained:
Test in all cases: relative viability (nuclei count vs DMSO), 5 days (fraction); higher = more cells survive
[1] = compound: C1=CC=C(C(=C1)C2=CC=C(C=C2)C3=CSC4=C3C(=C(C(=O)N4)C#N)O)O + Cc1cc(Nc2cc(N3CCN(C)CC3)nc(Sc3ccc(NC(=O)C4CC4)cc3)n2)n[nH]1 [Tozasertib] (partner 0.1 µM)
Procedure, shortened: (§1)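 Dosing by pin tool came one day after lung cancer cell lines were seeded in 1536-well plates, using either one drug or a fixed anchor-drug dose plus five library-drug doses (not always all listed) in √10 steps. After 5 days, nuclei were counted on 4× images. Relative viability is treated-well nuclei count divided by vehicle-well nuclei count, and values are medians of duplicate plates.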

Ricolinostat + AZD7762 = compound: O=C(CCCCCCNC(=O)c1cnc(N(c2ccccc2)c2ccccc2)nc1)NO [Ricolinostat] + NC(=O)Nc1cc(-c2cccc(F)c2)sc1C(=O)N[C@H]1CCCNC1 [AZD7762] (partner 0.2 µM)
Procedure, shortened: as §1

TGX 221 + Tozasertib = compound: CC1=CN2C(=O)C=C(N=C2C(=C1)C(C)NC3=CC=CC=C3)N4CCOCC4 [TGX 221] + Cc1cc(Nc2cc(N3CCN(C)CC3)nc(Sc3ccc(NC(=O)C4CC4)cc3)n2)n[nH]1 [Tozasertib] (partner 0.1 µM)
Procedure, shortened: as §1

TGX 221 + Luminespib = compound: CC1=CN2C(=O)C=C(N=C2C(=C1)C(C)NC3=CC=CC=C3)N4CCOCC4 [TGX 221] + CCNC(=O)c1noc(-c2cc(C(C)C)c(O)cc2O)c1-c1ccc(CN2CCOCC2)cc1 [Luminespib] (partner 0.01 µM)
Procedure, shortened: as §1

Row | Cell Line | relative viability ([1]; first compound 0.08 µM) | relative viability ([1]; first compound 0.253 µM) | relative viability ([1]; first compound 0.8 µM) | relative viability ([1]; first compound 2.53 µM) | relative viability ([1]; first compound 8 µM) | relative viability (Ricolinostat + AZD7762; first compound 0.08 µM) | relative viability (Ricolinostat + AZD7762; first compound 0.253 µM) | relative viability (Ricolinostat + AZD7762; first compound 0.8 µM) | relative viability (Ricolinostat + AZD7762; first compound 2.53 µM) | relative viability (TGX 221 + Tozasertib; first compound 0.08 µM) | relative viability (TGX 221 + Tozasertib; first compound 0.253 µM) | relative viability (TGX 221 + Tozasertib; first compound 0.8 µM) | relative viability (TGX 221 + Tozasertib; first compound 2.53 µM) | relative viability (TGX 221 + Tozasertib; first compound 8 µM) | relative viability (TGX 221 + Luminespib; first compound 0.08 µM) | relative viability (TGX 221 + Luminespib; first compound 0.253 µM) | relative viability (TGX 221 + Luminespib; first compound 0.8 µM) | relative viability (TGX 221 + Luminespib; first compound 2.53 µM) | relative viability (TGX 221 + Luminespib; first compound 8 µM)
1 | NCI-H596 | 0.888 | 0.724 | 1.09 | 0.89 | 0.655 | 0.965 | 1.12 | 1.08 | 0.686 | 0.94 | 0.944 | 0.91 | 0.864 | 0.61 | 0.992 | 1.02 | 1.04 | 0.881 | 0.935
2 | NCI-H1437 | 0.367 | 0.409 | 0.44 | 0.438 | 0.382 | 1.12 | 0.977 | 1.16 | 1.01 | 0.383 | 0.406 | 0.404 | 0.361 | 0.311 | 1.09 | 1.11 | 1.16 | 1.1 | 0.929
3 | PC-3 [JPC-3] | 0.606 | 0.401 | 0.928 | 0.876 | 0.716 | 0.54 | 0.695 | 0.679 | 0.665 | 0.822 | 0.913 | 0.838 | 0.856 | 0.833 | 0.584 | 0.651 | 0.693 | 0.73 | 0.681
4 | NCI-H1395 | 0.666 | 0.843 | 0.804 | 0.716 | 0.772 |  | 0.362 | 0.395 | 0.37 | 0.712 | 0.697 | 0.713 | 0.603 | 0.569 | 0.684 | 0.721 | 0.603 | 0.514 | 0.453
5 | NCI-H1651 | 0.819 | 0.714 | 0.792 | 0.716 | 0.607 | 0.429 | 0.485 | 0.367 | 0.302 | 0.602 | 0.649 | 0.696 | 0.566 | 0.418 | 0.828 | 0.653 | 0.741 | 0.592 | 0.568
6 | CAL-12T | 0.272 | 0.334 | 0.305 | 0.337 | 0.282 | 0.496 | 0.602 | 0.56 | 0.489 | 0.324 | 0.329 | 0.322 | 0.314 | 0.2 | 0.644 | 0.206 | 0.244 | 0.295 | 0.257
7 | NCI-H23 | 0.395 | 0.32 | 0.373 | 0.449 | 0.316 | 0.332 | 0.281 | 0.223 | 0.154 | 0.461 | 0.393 | 0.386 | 0.322 | 0.241 | 0.196 | 0.225 | 0.217 | 0.21 | 0.208
8 | SW 900 | 0.618 | 0.491 | 0.645 | 0.539 | 0.491 | 0.632 | 0.534 | 0.513 | 0.369 | 0.657 | 0.749 | 0.824 | 0.636 | 0.453 | 0.18 | 0.167 | 0.153 | 0.132 | 0.148
